Data published in US20240382555A1, “PEPTIDES WITH ANTI-ANGIOGENIC ACTIVITY” (priority 2021, published 2024).

Experiments:
Format in all cases: cell-based, human
HUVECs [1] = assay: Tube formation assay, HUVECs on growth factor-reduced Matrigel with pro-angiogenic stimuli; conditions: for anti-angiogenic activity (number of tubes/well): HUVECs, 50 ng/ml VEGF-A or FGF-2, 10 ng/ml peptide, FIG. 5
Experimental: Tube formation assays were performed as described in Caccuri F. et al., “Evolution toward beta common chain receptor usage links the matrix proteins of HIV-1 and its ancestors to human erythropoietin,” Proc Natl Acad Sci USA. 2021; 11810.
Briefly, 150 μl of Cultrex Basement Membrane Extract (Matrigel; 10 mg/ml) (Trevigen Inc., Gaithersburg, MD, USA) or reduced growth factor Matrigel (Trevigen Inc.) were transferred to prechilled 48-well culture plates. The plates were then incubated for 1 h at 37° C.
Cells were resuspended in EGM growth medium containing 10% FBS and seeded (5×10^4 per well). […] Capillary structures were photographed with a Hitachi KP-D50 camera and then quantified as the number of tubes/well.
In some experiments, HUVECs were stimulated with optimal concentrations of human pro-angiogenic molecules such as vascular endothelial growth factor-A (VEGF-A), fibroblast growth factor-2 (FGF-2), or interleukin-8 (IL-8). Experiments were conducted using nucleofected cells or cells stimulated with U94-derived peptides.
To evaluate the ability of the peptide of sequence SEQ ID No. 2 to influence the ability of HUVECs to respond to stimulation exerted by different angiogenic mediators, HUVECs were seeded on growth-reduced Matrigel in the absence (NT) or presence of optimal concentrations of different pro-angiogenic stimuli (VEGF-A, FGF-2, or IL-8) alone or in the presence of a control peptide (CTRL) or of the peptide of sequence SEQ ID No. 2 (KDKY).
HUVECs were seeded on reduced growth factor Matrigel-coated wells wells in complete medium containing 50 ng/ml of VEGF-A or FGF-2 alone or in combination with 10 ng/ml of the control peptide (CTRL), or KDKY, AKDY, KAKY, KDAY or KDKA.
HUVECs were seeded on reduced growth factor Matrigel-coated wells in complete medium containing 50 ng/ml of VEGF-A or FGF-2 alone or in combination with 10 ng/ml of CTRL, KDKY, DKY or DRY.

HUVECs [2] = assay: Spheroids assay, HUVEC spheroids in type I collagen gel with pro-angiogenic stimuli; conditions: HUVEC spheroids stimulated with VEGF-A, FGF-2 or IL-8; FIG. 2
Experimental: The assay was performed using nucleofected cells or cells stimulated with U94-derived peptides. Spheroids were generated by mixing HUVECs (1.5×10^5 cells/ml) with 5 mg/ml methylcellulose (Sigma-Aldrich) in EGM growth medium containing 10% FBS, bringing the final volume to 10 ml.
The cells (100 μl/well) were then added to 96-well plates (Greiner Bio-one, Kremsmünster, Austria) and incubated at 37° C., in a 5% CO2 atmosphere for 24 hours.
Separately, the collagen I gel solution (Rat Tail, Corning) was maintained on ice and neutralized by adding NaOH 0.1 M and PBS 10× to a final pH of 7.4.
Then, 24-well plates were coated with neutralized collagen (200 μl/well) and incubated in a humidified 5% CO2 incubator for 1 hour at 37° C.
The spheroids from the 96-well plates were collected in Eppendorf tubes and centrifuged at 4000×rpm for 5 to 10 seconds. When a clear pellet was distinguished, the supernatant was removed and the pellet was kept in a volume of about 100 μl of collagen I-neutralized solution.
Each collagen-spheroid mixture was rapidly added to pre-coated 24-well plates at 100 μl/well and incubated for 1 h. […]
Sprouting occurred from the spheroid core, which was photographed with a Hitachi KP-D50 camera, and the sprout number was counted with the spheroids similar sizes from three different wells of the plate. […]

[3] = tested on: SARS-CoV-2-infected HL-mECs; conditions: SARS-CoV-2-infected spheroids; FIG. 4
[4] = tested on: SARS-CoV-2-infected HL-mECs; conditions: growth factor-reduced Matrigel; MOI 1; FIG. 3

| Substance | anti-angiogenic activity (number of tubes/well) (HUVECs [1]) | sprouting response (number of sprouts per spheroid) (HUVECs [2]) | SARS-CoV-2-induced angiogenesis (number of sprouts per spheroid) [3] | angiogenic activity (number of tubes/well) of SARS-CoV-2-infected HL-mECs [4] | angiogenic activity (tube formation, number of tubes/well) (HUVECs [1]; HUVECs stimulated with VEGF-A, FGF-2 or IL-8, 8 hours after seeding on Matrigel, FIG. 1) |
| --- | --- | --- | --- | --- | --- |
| ADKY [tetra-peptide, first amino acid of KDKY replaced by alanine] | maintained potent anti-angiogenic activity |  |  |  |  |
| DKY | able to block angiogenic activity |  |  |  |  |
| DRY | able to block angiogenic activity |  |  |  |  |
| KDKY [SEQ ID No. 2] | able to block angiogenic activity | drastic reduction in the sprouting response | potently inhibited | did not perform any angiogenic activity | significantly impaired |
